Laboratory results from ChEMBL document CHEMBL4138163, “DMXAA-pyranoxanthone hybrids enhance inhibition activities against human cancer cells with multi-target functions” (Eur J Med Chem, 2018).
Activity calls are given as the source filed them. No cut-off for these calls is given here.

Experiments:
[1] = system: MDA-MB-231; test: Antiproliferative activity against human MDA-MB-231 cells after 24 hrs by MTT assay; assay type: functional, cell-based; details: MDA-MB-231, 24 h
[2] = system: K562; test: Antiproliferative activity against human K562 cells after 24 hrs by MTT assay; assay type: functional, cell-based; details: K562, 24 h
[3] = system: MCF7; test: Antiproliferative activity against human MCF7 cells after 24 hrs by MTT assay; assay type: functional, cell-based; details: MCF7, 24 h
[4] = system: HepG2; test: Antiproliferative activity against human HepG2 cells after 24 hrs by MTT assay; assay type: functional, cell-based; details: HepG2, 24 h
[5] = Half life in Kunming mouse plasma at 10 uM by HPLC method; assay type: ADME, cell-free
[6] = system: HepG2; test: Induction of apoptosis in human HepG2 cells assessed as increase in cleaved PARP levels at 0.2 uM after 24 hrs by Western blot method; assay type: functional, cell-based
[7] = system: HepG2; test: Induction of apoptosis in human HepG2 cells assessed as late apoptotic cells at 0.2 uM after 24 hrs by annexin-V/propidium iodide staining-based flow cytometric method relative to control; assay type: functional
[8] = Half life in cell culture medium at 10 uM by HPLC method; assay type: physicochemical
[9] = system: L02; test: Antiproliferative activity against human HL-7702 cells after 24 hrs by MTT assay; assay type: functional, cell-based; details: L02, 24 h
[10] = system: NIH3T3; test: Antiproliferative activity against mouse NIH/3T3 cells after 48 hrs by MTT assay; assay type: cell-based; details: nih3t3, 48 h
[11] = system: HepG2; test: Induction of apoptosis in human HepG2 cells assessed as upregulation of Bid expression at 0.2 uM after 24 hrs by Western blot method; assay type: functional, cell-based
[12] = system: HepG2; test: Induction of apoptosis in human HepG2 cells assessed as increase in cleaved caspase-9 levels at 0.2 uM after 24 hrs by Western blot method; assay type: functional, cell-based
[13] = target: T1, Tumour suppressor p53/oncoprotein Mdm2 (Homo sapiens) (UniProt P04637+Q00987); test: Inhibition of MDM2/p53 interaction in human HepG2 cells assessed as increase in p53 to MDM2 ratio at 0.2 uM after 24 hrs by Western blot method (reference value: 0.083); assay type: cell-based
T1 sequence (P04637 whole entry, looked up): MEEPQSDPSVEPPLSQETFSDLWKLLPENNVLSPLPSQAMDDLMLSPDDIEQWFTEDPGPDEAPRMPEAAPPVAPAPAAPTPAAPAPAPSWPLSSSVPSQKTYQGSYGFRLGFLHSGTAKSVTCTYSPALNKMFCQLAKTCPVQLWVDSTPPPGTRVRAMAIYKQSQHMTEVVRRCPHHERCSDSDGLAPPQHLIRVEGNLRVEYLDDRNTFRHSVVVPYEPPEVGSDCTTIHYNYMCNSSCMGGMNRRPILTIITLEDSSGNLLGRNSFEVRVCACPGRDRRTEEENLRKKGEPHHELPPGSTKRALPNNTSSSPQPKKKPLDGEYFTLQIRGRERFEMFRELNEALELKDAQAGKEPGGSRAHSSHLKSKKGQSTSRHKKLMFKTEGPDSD
T1 sequence (Q00987 whole entry, looked up): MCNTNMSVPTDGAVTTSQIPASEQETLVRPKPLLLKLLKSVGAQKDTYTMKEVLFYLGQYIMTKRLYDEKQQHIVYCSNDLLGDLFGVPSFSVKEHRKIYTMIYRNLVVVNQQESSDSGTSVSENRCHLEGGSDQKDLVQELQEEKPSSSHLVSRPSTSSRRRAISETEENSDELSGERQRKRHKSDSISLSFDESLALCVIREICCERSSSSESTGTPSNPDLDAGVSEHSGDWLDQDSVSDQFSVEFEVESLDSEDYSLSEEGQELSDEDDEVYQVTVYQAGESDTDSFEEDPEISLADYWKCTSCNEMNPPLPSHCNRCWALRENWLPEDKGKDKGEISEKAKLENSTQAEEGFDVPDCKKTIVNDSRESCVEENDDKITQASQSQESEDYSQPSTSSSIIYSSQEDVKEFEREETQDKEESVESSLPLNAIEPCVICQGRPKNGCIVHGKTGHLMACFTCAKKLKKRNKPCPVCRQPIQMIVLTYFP

[14] = system: HepG2; test: Induction of apoptosis in human HepG2 cells assessed as ratio of Bax/Bcl-2 at 0.2 uM after 24 hrs by Western blot method (reference value: 0.23); assay type: functional
[15] = system: HepG2; test: Cell cycle arrest in human HepG2 cells assessed as accumulation at S phase at 0.2 uM after 28 hrs by propidium iodide staining-based flow cytometric method relative to control
[16] = system: NIH3T3; test: Antiproliferative activity against mouse NIH/3T3 cells after 24 hrs by MTT assay; assay type: cell-based
[17] = system: L02; test: Antiproliferative activity against human HL-7702 cells after 48 hrs by MTT assay; assay type: functional, cell-based; details: L02, 48 h
[18] = system: HepG2; test: Induction of apoptosis in human HepG2 cells assessed as early apoptotic cells at 0.2 uM after 24 hrs by annexin-V/propidium iodide staining-based flow cytometric method relative to control; assay type: functional
[19] = Selectivity ratio of IC50 for human HL-7702 cells to IC50 for human HepG2 cells; assay type: functional
[20] = system: HepG2; test: Induction of apoptosis in human HepG2 cells assessed as downregulation of Bcl-xL expression at 0.2 uM after 24 hrs by Western blot method; assay type: functional, cell-based
[21] = system: HepG2; test: Induction of apoptosis in human HepG2 cells assessed as increase in cleaved caspase-3 levels at 0.2 uM after 24 hrs by Western blot method; assay type: functional, cell-based
[22] = system: HepG2; test: Induction of apoptosis in human HepG2 cells assessed as increase in cleaved caspase-9 levels co-treated with DMXAA at 1:1 molar ratio after 24 hrs by Western blot method; assay type: functional, cell-based
[23] = system: HepG2; test: Induction of apoptosis in human HepG2 cells assessed as increase in cleaved caspase-3 levels co-treated with DMXAA at 1:1 molar ratio after 24 hrs by Western blot method; assay type: functional, cell-based
[24] = system: HepG2; test: Induction of apoptosis in human HepG2 cells assessed as total apoptosis rate at 0.2 uM after 24 hrs by annexin-V/propidium iodide staining-based flow cytometric method relative to control; assay type: functional
[25] = system: HepG2; test: Induction of apoptosis in human HepG2 cells assessed as upregulation of Bid expression co-treated with DMXAA at 1:1 molar ratio after 24 hrs by Western blot method; assay type: functional, cell-based
[26] = system: MDA-MB-231; test: Antiproliferative activity against human MDA-MB-231 cells co-treated with DMXAA at 1:1 molar ratio after 24 hrs by MTT assay; assay type: functional, cell-based; details: MDA-MB-231, 24 h
[27] = target: T1, Tumour suppressor p53/oncoprotein Mdm2 (Homo sapiens); test: Inhibition of MDM2/p53 interaction in human HepG2 cells assessed as increase in p53 to MDM2 ratio co-treated with DMXAA at 1:1 molar ratio after 24 hrs by Western blot method (reference value: 0.083); assay type: cell-based
[28] = system: HepG2; test: Induction of apoptosis in human HepG2 cells assessed as late apoptotic cells co-treated with pyranoxanthone at 1:1 molar ratio after 24 hrs by annexin-V/propidium iodide staining-based flow cytometric method relative to control; assay type: functional
[29] = system: HepG2; test: Induction of apoptosis in human HepG2 cells assessed as late apoptotic cells co-treated with DMXAA at 1:1 molar ratio after 24 hrs by annexin-V/propidium iodide staining-based flow cytometric method relative to control; assay type: functional
[30] = system: HepG2; test: Induction of apoptosis in human HepG2 cells assessed as downregulation of Bcl-xL expression co-treated with DMXAA at 1:1 molar ratio after 24 hrs by Western blot method; assay type: functional, cell-based
[31] = system: K562; test: Antiproliferative activity against human K562 cells co-treated with DMXAA at 1:1 molar ratio after 24 hrs by MTT assay; assay type: functional, cell-based; details: K562, 24 h
[32] = system: HepG2; test: Induction of apoptosis in human HepG2 cells assessed as ratio of Bax/Bcl-2 co-treated with DMXAA at 1:1 molar ratio after 24 hrs by Western blot method (reference value: 0.23); assay type: functional
[33] = system: MCF7; test: Antiproliferative activity against human MCF7 cells co-treated with DMXAA at 1:1 molar ratio after 24 hrs by MTT assay; assay type: functional, cell-based; details: MCF7, 24 h
[34] = system: HepG2; test: Induction of apoptosis in human HepG2 cells assessed as necrotic cells at 0.2 uM after 24 hrs by annexin-V/propidium iodide staining-based flow cytometric method relative to control; assay type: functional
[35] = system: HepG2; test: Cell cycle arrest in human HepG2 cells assessed as accumulation at S phase co-treated with DMXAA at 1:1 molar ratio after 28 hrs by propidium iodide staining-based flow cytometric method
[36] = system: HepG2; test: Induction of apoptosis in human HepG2 cells assessed as increase in cleaved PARP levels co-treated with DMXAA at 1:1 molar ratio after 24 hrs by Western blot method; assay type: functional, cell-based
[37] = system: HepG2; test: Antiproliferative activity against human HepG2 cells co-treated with DMXAA at 1:1 molar ratio after 24 hrs by MTT assay; assay type: functional, cell-based; details: HepG2, 24 h
[38] = system: HepG2; test: Induction of apoptosis in human HepG2 cells assessed as ratio of Bax/Bcl-2 co-treated with pyranoxanthone at 1:1 molar ratio after 24 hrs by Western blot method (reference value: 0.23); assay type: functional
[39] = system: MCF7; test: Antiproliferative activity against human MCF7 cells co-treated with pyranoxanthone at 1:1 molar ratio after 24 hrs by MTT assay; assay type: functional, cell-based; details: MCF7, 24 h
[40] = system: HepG2; test: Induction of apoptosis in human HepG2 cells assessed as increase in cleaved caspase-9 levels co-treated with pyranoxanthone at 1:1 molar ratio after 24 hrs by Western blot method; assay type: functional, cell-based
[41] = system: HepG2; test: Antiproliferative activity against human HepG2 cells co-treated with pyranoxanthone at 1:1 molar ratio after 24 hrs by MTT assay; assay type: functional, cell-based; details: HepG2, 24 h
[42] = system: HepG2; test: Induction of apoptosis in human HepG2 cells assessed as increase in cleaved PARP levels co-treated with pyranoxanthone at 1:1 molar ratio after 24 hrs by Western blot method; assay type: functional, cell-based
[43] = system: MDA-MB-231; test: Antiproliferative activity against human MDA-MB-231 cells co-treated with pyranoxanthone at 1:1 molar ratio after 24 hrs by MTT assay; assay type: functional, cell-based; details: MDA-MB-231, 24 h
[44] = system: HepG2; test: Induction of apoptosis in human HepG2 cells assessed as increase in cleaved caspase-3 levels co-treated with pyranoxanthone at 1:1 molar ratio after 24 hrs by Western blot method; assay type: functional, cell-based
[45] = system: HepG2; test: Cell cycle arrest in human HepG2 cells assessed as accumulation at S phase co-treated with pyranoxanthone at 1:1 molar ratio after 28 hrs by propidium iodide staining-based flow cytometric method
[46] = system: HepG2; test: Induction of apoptosis in human HepG2 cells assessed as upregulation of Bid expression co-treated with pyranoxanthone at 1:1 molar ratio after 24 hrs by Western blot method; assay type: functional, cell-based
[47] = system: HepG2; test: Induction of apoptosis in human HepG2 cells assessed as downregulation of Bcl-xL expression co-treated with pyranoxanthone at 1:1 molar ratio after 24 hrs by Western blot method; assay type: functional, cell-based
[48] = system: HepG2; test: Induction of apoptosis in human HepG2 cells assessed as early apoptotic cells co-treated with DMXAA at 1:1 molar ratio after 24 hrs by annexin-V/propidium iodide staining-based flow cytometric method relative to control; assay type: functional
[49] = system: HepG2; test: Induction of apoptosis in human HepG2 cells assessed as early apoptotic cells co-treated with pyranoxanthone at 1:1 molar ratio after 24 hrs by annexin-V/propidium iodide staining-based flow cytometric method relative to control; assay type: functional
[50] = target: T1, Tumour suppressor p53/oncoprotein Mdm2 (Homo sapiens); test: Inhibition of MDM2/p53 interaction in human HepG2 cells assessed as increase in p53 to MDM2 ratio co-treated with pyranoxanthone at 1:1 molar ratio after 24 hrs by Western blot method (reference value: 0.083); assay type: cell-based
[51] = system: K562; test: Antiproliferative activity against human K562 cells co-treated with pyranoxanthone at 1:1 molar ratio after 24 hrs by MTT assay; assay type: functional, cell-based; details: K562, 24 h

SMILES | IC50 [1] | IC50 [2] | IC50 [3] | IC50 [4] | Activity [6] | Activity [7] | IC50 [9] | Activity [11] | Activity [12] | fold change (FC) [13] | Ratio [14] | Activity [15] | Activity [18] | Activity [20] | Activity [21] | other results
Cc1ccc2c(=O)c3cccc(CC(=O)OCCCCCOc4c5c(cc6c(=O)c7ccccc7oc46)CCC(C)(C)O5)c3oc2c1C | 11.2 µM | 15 µM | 8.72 µM | 1.53 µM |  |  |  |  |  |  |  |  |  |  |  | 
Cc1ccc2c(=O)c3cccc(CC(=O)OCCCCCCOc4c5c(cc6c(=O)c7ccccc7oc46)CCC(C)(C)O5)c3oc2c1C | 1.13 µM | 9.13 µM | 0.534 µM | 0.216 µM | Active | 42% | 378 to 452 µM | Active | Active | 0.81 | 0.87 | 90% | 38% | Active | Active | half-life at 10 µM [5]: 4.2 h; half-life at 10 µM [8]: 24.8 h; Activity [10]: Non-Toxic; Activity ([16]; mouse, nih3t3, 24 h): Non-Toxic; IC50 [17]: 293 to 352 µM; Ratio IC50 [19]: 2092
Cc1ccc2c(=O)c3cccc(CC(=O)OCCCOc4c5c(cc6c(=O)c7ccccc7oc46)CCC(C)(C)O5)c3oc2c1C | 32.2 µM | 32.3 µM | 51.7 µM | 32.7 µM |  |  |  |  |  |  |  |  |  |  |  | 
Cc1ccc2c(=O)c3cccc(CC(=O)OCCCCOc4c5c(cc6c(=O)c7ccccc7oc46)CCC(C)(C)O5)c3oc2c1C | 19.6 µM | 20.6 µM | 33.2 µM | 11.9 µM |  |  |  |  |  |  |  |  |  |  |  | 
CC1(C)CCc2cc3c(=O)c4ccccc4oc3c(O)c2O1 [DIHYDRO-12-HYDROXY-2,2-DIMETHYL-2H,6H-PYRANO[3,2-B]XANTHEN-6-ONE] | 59.3 µM | 27.8 µM | 102 µM | 40.3 µM | Active |  |  | Active | Active | 0.19 | 0.36 | Active |  | Active | Active | Activity [22]: Active; Activity [23]: Active; Activity [24]: <10%; Activity [25]: Active; IC50 [26]: 12.1 µM; fold change (FC) [27]: 0.67; Activity [28]: 46%; Activity [29]: 46%; Activity [30]: Active; IC50 [31]: 19.1 µM; Ratio [32]: 0.58; IC50 [33]: 11.9 µM; Activity [34]: <10%; Activity [35]: Active; Activity [36]: Active; IC50 [37]: 21.2 µM
Cc1ccc2c(=O)c3cccc(CC(=O)O)c3oc2c1C [VADIMEZAN] |  |  |  |  | Active | 7% | 101 µM |  | Active |  |  | Active | 13% |  | Active | Ratio [38]: 0.58; IC50 [39]: 11.9 µM; Activity [40]: Active; IC50 [41]: 21.2 µM; Activity [42]: Active; IC50 [43]: 12.1 µM; Activity [44]: Active; Activity [45]: Active; Activity [46]: Active; IC50 ([16]; Mus musculus, NIH3T3, 24 h): 67.8 µM; Activity [47]: Active; Activity [48]: 15%; Activity [49]: 15%; fold change (FC) [50]: 0.67; IC50 [51]: 19.1 µM
